{"source": "patent US20240159706A1", "about": "“MALDI-MS METHOD, PHOTO-SENSITIVE MALDI MATRIX COMPOSITE AND PHOTO-CAGED MALDI MATRIX COMPOUND FOR USE IN SAID METHOD AND RESPECTIVE USES” (SIRIUS FINE CHEMICALS SICHEM GMBH, priority 2021, published 2024)", "key": {"[1]": {"conditions": "stated as known; cited from earlier work"}, "[2]": {"experiment": "Solubility tests with Photo-caged MALDI Matrix Compounds in solvents/solvent systems", "type": "physicochemical", "conditions": "for solubility: organic solvent or mixture, thermodynamic from solid, read-out: solubility (completely dissolved at 2.5 mg/mL)", "method": "Photo-caged MALDI Matrix Compounds according to the invention were prepared as described in Example 1 above and tested for solubility in different solvents (including solvent systems). The solvents (including solvent systems) used in this Example 2 are listed here below in Table 1:\nAround 1 mg of each Photo-caged MALDI Matrix Compound was weighed into an Eppendorf tube using an analytical balance. The calculated amount of selected solvent was added into the tube to generate a solution at a maximal concentration of 2.5 mg/mL. An ultrasonic bath was used for max. 3 min. to accelerate the dissolving process.\nThe numbers of the compounds used in this Example 2 refer to the example numbers of Example 1 above. In Table 2 below, the mark “X” in a cell means, that the respective compound was completely dissolved in the respective solvent or solvent system in a concentration of 2.5 mg/mL."}, "[3]": {"experiment": "Crystallisation test by spray method", "type": "physicochemical", "conditions": "on ITO object slide, by scanning electron microscopy", "method": "The Photo-caged MALDI Matrix Compound of Ex. 1.1 according to the invention was prepared as described in Example 1 above and spray-tested for its crystallization properties in a spraying method on (i) an indium tin-oxide (ITO) object slide and (ii) on a sliced sample of porcine brain.\nIn each case, a solution of the Photo-caged MALDI Matrix Compound of Ex. 1.1 (concentration 2.5 mg/mL in acetonitrile/water v/v 4/1) was sprayed onto the surfaces of (i) an ITO object slide and (ii) on a sliced sample of porcine brain with a MALDI HTX M5 Sprayer™ (by HTX Technologies, LLC, USA).\nThe operating parameters applied were as follows: Temperature of spraying nozzle: 50° C./flow rate: 0.06 mL/min/speed of spraying nozzle: 1000 mm/min/spraying distance: 40 mm.\nThe resulting crystals on (i) an ITO object slide and (FIG. 1 to 3) (ii) on a sliced sample of porcine brain (FIG. 4 to 5) where then analyzed by optical scanning (in 20-fold magnification) and by scanning electron microscopy (in 5000-fold and 10000-fold magnification), as shown in FIG. 1 to 5."}, "[4]": {"experiment": "Additional vacuum stability test, compounds sprayed on ITO slides with porcine brain tissue sections (Example 4a)", "type": "physicochemical", "conditions": "21 hrs, about 35° C., vacuum up to about 1.4×10^−7 mbar", "method": "In a separate experiment, frozen porcine brain tissue was sectioned into 10 μm slices using a Leica CM1950 clinical cryostate (Leica Biosystems, Germany) at a chamber temperature of −15° C. and a head temperature of −10° C. The tissue sections were thaw-mounted onto ITO glass slides and dried for 20 min under vacuum. The ITO glass object slides with tissue sections were then sealed and stored at −80° C. until analysis. Shortly before usage, the slides were taken out from the freezer and thawed at room temperature for 20 min. under vacuum.\nPhoto-caged MALDI Matrix Compounds of Examples Ex. 1.1 (DMNB-2,5-DHAP), 1.7 (CNB-2,5-DHAP), 1.8 (PMNB-2,5-DHAP) and 1.9 (DMNBC-2,5 DHAP) were dissolved (Ex. 1.1: 2.5 mg/mL in standard solvent according to table 2 above; Ex.: 1.7 and 1.8:2.5 mg/mL in acetonitrile/water 7:3 (v/v)+0.1% trifluoroacetic acid; Ex. 1.9: saturated solution <2.5 mg/mL in acetonitrile/water 8:2 (v/v)+0.1% trifluoroacetic acid) and sprayed onto the ITO slides as prepared above, including to the porcine brain tissue sections thereof (see above) with a HTX M5 sprayer (HTX Technologies, USA), spray parameters: temperature of spray nozzle/tray: 50° C./25° C., Spray nozzle velocity 1000 mm/min; nozzle height: 40 mm. Twenty passes with a flow rate of 60 μL/min and a pressure of 10 psi were sprayed. Optical images of the sprayed slides were then recorded before incubation and after incubation in an ultrafleXtreme™ MALDI TOF mass spectrometer (see above) for 21 hrs at about 35° C. and a vacuum of up to about 1.4×10^−7 mbar."}}, "note": "Read-outs that look alike come from different tables or passages of the source."}
{"compound": "CC(=O)c1c(O)cccc1O", "note": "[2,6-DHAP, 2,6-dihydroxyacetophenone]", "values": [{"measurement": "sensitivity to vacuum conditions", "setting": "[1]", "value": "extremely sensitive to vacuum conditions and volatile"}]}
{"compound": "COc1cc(COc2ccc(O)c(C(C)=O)c2)c([N+](=O)[O-])cc1OC", "note": "[Ex. 1.1, 1-(5-((4,5-Dimethoxy-2-nitrobenzyl)oxy)-2-hydroxyphenyl)ethan-1-one]", "values": [{"measurement": "solubility (completely dissolved at 2.5 mg/mL)", "setting": "[2]; Solvent 5: Methanol/water (v/v 90/10)", "value": "◯"}, {"measurement": "solubility (completely dissolved at 2.5 mg/mL)", "setting": "[2]; Solvent 7: Methanol/water (v/v 90/10) + 50 mM (final conc.) NH4HCO3", "value": "◯"}, {"measurement": "solubility (completely dissolved at 2.5 mg/mL)", "setting": "[2]; Solvent 8: Methanol/water (v/v 85/15)", "value": "◯"}, {"measurement": "solubility (completely dissolved at 2.5 mg/mL)", "setting": "[2]; Solvent 9: Methanol/water (v/v 85/15) + 0.1% trifluoroacetic acid", "value": "◯"}, {"measurement": "solubility (completely dissolved at 2.5 mg/mL)", "setting": "[2]; Solvent 10: Methanol/water (v/v 85/15) + 50 mM (final conc.) NH4HCO3", "value": "◯"}, {"measurement": "solubility", "setting": "[2]; Solvent 1: Acetonitrile", "value": "> 2500", "unit": "µg/mL"}, {"measurement": "solubility", "setting": "[2]; Solvent 2: Acetonitrile/water (v/v 90/10)", "value": "> 2500", "unit": "µg/mL"}, {"measurement": "solubility", "setting": "[2]; Solvent 3: Acetonitrile/water (v/v 90/10) + 0.1% trifluoroacetic acid", "value": "> 2500", "unit": "µg/mL"}, {"measurement": "solubility", "setting": "[2]; Solvent 4: Acetonitrile/water (v/v 85/15) + 0.1% trifluoroacetic acid", "value": "> 2500", "unit": "µg/mL"}, {"measurement": "solubility", "setting": "[2]; Solvent 6: Methanol/water (v/v 90/10) + 0.1% trifluoroacetic acid", "value": "> 2500", "unit": "µg/mL"}, {"measurement": "solubility in the solvents or solvent systems under review", "setting": "[2]; overall rating from Table 2, Solvents 1-10", "value": "very good solubility"}, {"measurement": "average size of the resulting crystals", "setting": "[3]", "value": "about 1 μm"}, {"measurement": "presence on ITO slides / porcine brain tissue sections after incubation under vacuum", "setting": "[4]", "value": "best results"}]}
